The results in this text go back to US11130769B2 (Prelude Therapeutics Incorporated, priority 2018, dated 2021).

The structures appear in SMILES notation. Where two headings read alike, the source gives them in different places. Some results are limits rather than exact numbers.

One assay addresses MCL-1 (Homo sapiens (Human), UniProt Q07820). The experiment in a line: Cell free Mcl-1:Bim affinity assay (fluorescence polarization competition). Format: binding. The note with it: 15 nM MCL-1, 5 nM FITC-Bim, 1 hour at room temperature, read-out: BIM_Ki. The procedure, abridged:
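Compounds competed with FITC-labelled Bim peptide (5 nM) for MCL-1 (15 nM) in HEPES/NaCl buffer with 1% DMSO, 1 h at room temperature. Fluorescence polarization (535 nm emission) gave % inhibition versus DMSO and positive controls; IC50 from 10-point curves, converted to Ki by the Nikolovska-Coleska equation.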

The subject of a further assay is H929 cells. The assay can be described thus: Cell viability assay (H929 10 FBS). Type of assay: cell-based. The settings on record: Homo sapiens, NCI-H929, 24 hours, read-out: H929_10FBS IC50. The procedure, abridged:
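H929 cells, 4000/well, in RPMI 1640 with 10% FBS, sodium pyruvate, HEPES and glucose were exposed to compound 24 h at 37 °C. Viability read as luminescence after 30-60 min at RT with CellTiter-Glo or ATPlite 1 Step.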

Sequence of MCL-1 (Q07820 whole entry): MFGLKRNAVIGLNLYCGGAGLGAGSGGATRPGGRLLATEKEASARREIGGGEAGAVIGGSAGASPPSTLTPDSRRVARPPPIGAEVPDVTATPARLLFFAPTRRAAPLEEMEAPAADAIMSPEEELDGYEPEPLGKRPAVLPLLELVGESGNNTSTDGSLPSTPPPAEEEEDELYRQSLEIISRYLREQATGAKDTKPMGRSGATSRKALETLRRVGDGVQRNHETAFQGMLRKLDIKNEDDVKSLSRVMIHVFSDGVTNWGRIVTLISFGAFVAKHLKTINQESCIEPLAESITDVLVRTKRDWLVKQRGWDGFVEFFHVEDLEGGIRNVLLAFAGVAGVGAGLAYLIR

A word on the IC50: it is the concentration needed to halve the response being measured. `CN(C)CCN(C)C(=O)O[C@H]1/C=C/CN(C)C(C)(C)C(=O)NS(=O)(=O)c2ccc3c(c2)N(C[C@@H]2CC[C@H]21)C[C@@]1(CCCc2cc(Cl)ccc21)CO3` [Example 213, [(3R,6R,7S,8E,22S)-6′-Chloro-11,12,12-trimethyl-13,15,15-trioxo-spiro[20-oxa-15-thia-1,11,14-triazatetracyclo[14.7.2.03,6.019,24]pentacosa-8,16,18,24-tetraene-22,1′-tetralin]-7-yl] N-[2-(dimethylamino)ethyl]-N-methyl-carbamate]: on MCL-1 (class symbols), the Ki is below 1 nM. Also, the IC50 in the assay with H929 cells is below 500 nM.

For the compound `CC1(C)OC/C=C/[C@H](OCC(=O)N2CCCC2)[C@@H]2CC[C@H]2CN2C[C@@]3(CCCc4cc(Cl)ccc43)COc3ccc(cc32)S(=O)(=O)NC1=O` [Example 283, (3R,6R,7S,8E,22S)-6′-Chloro-12,12-dimethyl-15,15-dioxo-7-(2-oxo-2-pyrrolidin-1-yl-ethoxy)spiro[11,20-dioxa-15-thia-1,14-diazatetracyclo[14.7.2.03,6.019,24]pentacosa-8,16,18,24-tetraene-22,1′-tetralin]-13-one], the Ki at MCL-1 (class symbols) is below 1 nM. The IC50 with H929 cells is below 500 nM.

Consider `COC[C@H]1C(=O)NS(=O)(=O)c2ccc3c(c2)N(C[C@@H]2CC[C@H]2[C@H](OC)/C=C/C[C@@H]1C)C[C@@]1(CCCc2cc(Cl)ccc21)CO3` [Example 87, (3R,6R,7R,8E,11S,12S,22S)-6′-Chloro-7-methoxy-12-(methoxymethyl)-11-methyl-15,15-dioxo-spiro[20-oxa-15-thia-1,14-diazatetracyclo[14.7.2.03,6.019,24]pentacosa-8,16,18,24-tetraene-22,1′-tetralin]-13-one], for which the Ki at MCL-1 (class symbols) is below 1 nM. Also, the IC50 in the assay with H929 cells was below 1000 nM.

Turning to `CO[C@@H]1/C=C\CNC(=O)NS(=O)(=O)c2ccc3c(c2)N(C[C@@H]2CC[C@H]21)C[C@@]1(CCCc2cc(Cl)ccc21)CO3` [Example 130, (3R,6R,7R,8Z,21S)-6′-Chloro-7-methoxy-14,14-dioxo-spiro[19-oxa-14-thia-1,11,13-triazatetracyclo[13.7.2.03,6.018,23]tetracosa-8,15,17,23-tetraene-21,1′-tetralin]-12-one], the Ki at MCL-1 (class symbols) was 1 to 100 nM. For the same compound, the IC50 in the assay on H929 cells was above 1000 nM.

For the compound `CN(C(=O)O[C@H]1/C=C/COC2(CCC2)C(=O)NS(=O)(=O)c2ccc3c(c2)N(C[C@@H]2CC[C@H]21)C[C@@]1(CCCc2cc(Cl)ccc21)CO3)[C@@H]1CCOC1` [Example 234, [(3R,6R,7S,8E,22S)-6′-Chloro-12,12-(1,3-propylene)-13,15,15-trioxo-spiro[11,20-dioxa-15-thia-1,14-diazatetracyclo[14.7.2.03,6.019,24]pentacosa-8,16,18,24-tetraene-22,1′-tetralin]-7-yl] N-methyl-N-[(3R)-tetrahydrofuran-3-yl]carbamate], the Ki at MCL-1 (class symbols) is below 1 nM. The IC50 in the assay on H929 cells is below 500 nM.

Take `CNC1CN(C(=O)O[C@H]2/C=C/COC(C)(C)C(=O)NS(=O)(=O)c3ccc4c(c3)N(C[C@@H]3CC[C@H]32)C[C@@]2(CCCc3cc(Cl)ccc32)CO4)C1` [Example 156, [(3R,6R,7S,8E,22S)-6′-Chloro-12,12-dimethyl-13,15,15-trioxo-spiro[11,20-dioxa-15-thia-1,14-diazatetracyclo[14.7.2.03,6.019,24]pentacosa-8,16,18,24-tetraene-22,1′-tetralin]-7-yl] 3-(methylamino)azetidine-1-carboxylate]: on MCL-1 (class symbols), the Ki is below 1 nM. Besides, in the assay with H929 cells, the IC50 was below 500 nM.

For `CC1(C)OC/C=C/[C@H](OCC(=O)N2C[C@@H](F)[C@@H](F)C2)[C@@H]2CC[C@H]2CN2C[C@@]3(CCCc4cc(Cl)ccc43)COc3ccc(cc32)S(=O)(=O)NC1=O` [Example 291, (3R,6R,7S,8E,22S)-6′-Chloro-7-[2-[(3R,4S)-3,4-difluoropyrrolidin-1-yl]-2-oxo-ethoxy]-12,12-dimethyl-15,15-dioxo-spiro[11,20-dioxa-15λ6-thia-1,14-diazatetracyclo[14.7.2.03,6.019,24]pentacosa-8,16,18,24-tetraene-22,1′-tetralin]-13-one], the Ki at MCL-1 (class symbols) was below 1 nM. For the same compound, the IC50 in the assay on H929 cells is below 1000 nM.

Take `CO[C@@H]1/C=C/CN[C@@H](C(C)C)C(=O)NS(=O)(=O)c2ccc3c(c2)N(C[C@@H]2CC[C@H]21)C[C@@]1(CCCc2cc(Cl)ccc21)CO3` [Example 128, (3R,6R,7R,8E,12S,22S)-6′-Chloro-7-methoxy-12-isopropyl-15,15-dioxo-spiro[20-oxa-15-thia-1,11,14-triazatetracyclo[14.7.2.03,6.019,24]pentacosa-8,16,18,24-tetraene-22,1′-tetralin]-13-one]: on MCL-1 (class symbols), the Ki was 1 to 100 nM. In the assay with H929 cells, the IC50 was above 1000 nM.

Regarding `[2H]C1([2H])/C=C/[C@H](OC(=O)N(C)C)[C@@H]2CC[C@H]2CN2C[C@@]3(CCCc4cc(Cl)ccc43)COc3ccc(cc32)S(=O)(=O)NC(=O)C(C)(C)O1` [Example 312, [(3R,6R,7S,8E,22S)-6′-Chloro-10,10-dideuterio-12,12-dimethyl-13,15,15-trioxo-spiro[11,20-dioxa-15-thia-1,14-diazatetracyclo[14.7.2.03,6.019,24]pentacosa-8,16,18,24-tetraene-22,1′-tetralin]-7-yl] N,N-dimethylcarbamate], the Ki at MCL-1 (class symbols) was below 1 nM. The IC50 with H929 cells is below 500 nM.

In the case of `CC1(C)OC/C=C/[C@H](OC(=O)N2CCCC2)[C@@H]2CC[C@H]2CN2C[C@@]3(CCCc4cc(Cl)ccc43)COc3ccc(cc32)S(=O)(=O)NC1=O` [Example 173, [(3R,6R,7S,8E,22S)-6′-Chloro-12,12-dimethyl-13,15,15-trioxo-spiro[11,20-dioxa-15-thia-1,14-diazatetracyclo[14.7.2.03,6.019,24]pentacosa-8,16,18,24-tetraene-22,1′-tetralin]-7-yl]pyrrolidine-1-carboxylate], the Ki on MCL-1 (class symbols) was below 1 nM. The IC50 in the assay on H929 cells is below 500 nM.

Turning to `CC1(C)OC/C=C/[C@H](OC(=O)NC2COC2)[C@@H]2CC[C@H]2CN2C[C@@]3(CCCc4cc(Cl)ccc43)COc3ccc(cc32)S(=O)(=O)NC1=O` [Example 192, [(3R,6R,7S,8E,22S)-6′-Chloro-12,12-dimethyl-13,15,15-trioxo-spiro[11,20-dioxa-15-thia-1,14-diazatetracyclo[14.7.2.03,6.019,24]pentacosa-8,16,18,24-tetraene-22,1′-tetralin]-7-yl] N-(oxetan-3-yl)carbamate], the Ki on MCL-1 (class symbols) was below 1 nM. Besides, the IC50 in the assay on H929 cells is below 500 nM.

On to `CO[C@@H]1/C=C/CN(C)[C@H](C)C(=O)NS(=O)(=O)c2ccc3c(c2)N(C[C@@H]2CC[C@H]21)C[C@@]1(CCCc2cc(Cl)ccc21)CO3` [Example 123, (3R,6R,7R,8E,12R,22S)-6′-Chloro-7-methoxy-11,12-dimethyl-15,15-dioxo-spiro[20-oxa-15-thia-1,11,14-triazatetracyclo[14.7.2.03,6.019,24]pentacosa-8,16(25),17,19(24)-tetraene-22,1′-tetralin]-13-one], for which the Ki at MCL-1 (class symbols) was in the range of 1 to 100 nM. For the same compound, the IC50 in the assay with H929 cells was below 1000 nM.

For `CCO[C@@H]1CCN(C(=O)O[C@H]2/C=C/COC(C)(C)C(=O)NS(=O)(=O)c3ccc4c(c3)N(C[C@@H]3CC[C@H]32)C[C@@]2(CCCc3cc(Cl)ccc32)CO4)C1` [Example 59, [(3R,6R,7S,8E,22S)-6′-Chloro-12,12-dimethyl-13,15,15-trioxo-spiro[11,20-dioxa-15-thia-1,14-diazatetracyclo[14.7.2.03,6.019,24]pentacosa-8,16,18,24-tetraene-22,1′-tetralin]-7-yl] (3R)-3-ethoxypyrrolidine-1-carboxylate], the Ki on MCL-1 (class symbols) is below 1 nM. Also, in the assay on H929 cells, the half-inhibitory concentration (IC50) was below 500 nM.

`O=C1Cc2cc(OCCN3CCOCC3)cc(c2)OC[C@@H]2CC[C@H]2CN2C[C@@]3(CCCc4cc(Cl)ccc43)COc3ccc(cc32)S(=O)(=O)N1` [Example 105, (3R,6R,24S)-6′-Chloro-11-(2-morpholinoethoxy)-17,17-dioxo-spiro[8,22-dioxa-17-thia-1,16-diazapentacyclo[16.7.2.19,13.03,6.021,26]octacosa-9(28),10,12,18(27),19,21(26)-hexaene-24,1′-tetralin]-15-one]: the Ki at MCL-1 (class symbols) lay in the range of 1 to 100 nM. Besides, the IC50 with H929 cells was above 1000 nM.

Turning to `O=C(Cc1nccs1)NS(=O)(=O)c1ccc2c(c1)N(CC1CCC1)C[C@@]1(CCCc3cc(Cl)ccc31)CO2` [Example 16, N-[(3S)-6′-Chloro-5-(cyclobutylmethyl)spiro[2,4-dihydro-1,5-benzoxazepine-3,1′-tetralin]-7-yl]sulfonyl-2-thiazol-2-yl-acetamide], the Ki on MCL-1 (numeric values) was 9 nM. In addition, the 50% inhibitory concentration (IC50) with H929 cells was above 1000 nM.

Turning to `O=C1NS(=O)(=O)c2ccc3c(c2)N(C[C@@H]2CC[C@H]2[C@H](O)/C=C/COC12CC2)C[C@@]1(CCCc2cc(Cl)ccc21)CO3` [Example 38, (3R,6R,7R,8E,22S)-6′-Chloro-7-hydroxy-12,12-ethylene-15,15-dioxo-spiro[11,20-dioxa-15-thia-1,14-diazatetracyclo[14.7.2.03,6.019,24]pentacosa[8,16(25),17,19(24)]tetraene-22,1′-tetralin]-13-one], at MCL-1 (class symbols), the Ki is below 1 nM. Also, the IC50 with H929 cells is below 500 nM.

Turning to `CO[C@@H]1/C=C/C[C@H](C)CC(=O)NS(=O)(=O)c2ccc3c(c2)N(C[C@@H]2CC[C@H]21)C[C@@]1(CCCc2cc(Cl)ccc21)CO3` [Example 71, (3R,6R,7R,8E,11S,22S)-6′-Chloro-7-methoxy-11-methyl-15,15-dioxo-spiro[20-oxa-15-thia-1,14-diazatetracyclo[14.7.2.03,6.019,24]pentacosa-8,16(25),17,19(24)-tetraene-22,1′-tetralin]-13-one], the Ki on MCL-1 (class symbols) lay in the range of 1 to 100 nM. Moreover, the concentration for half-maximal inhibition (IC50) with H929 cells was above 1000 nM.
